From patent publication US6737383B1, “Herbicidal oxadiazolidines” (priority 1999, dated 2004)

Tests used:
[1] = system: wheat; experiment: Test B pre/postemergence wheat; type: in vivo, Triticum aestivum
How it was run: (§1)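 Herbicidal effect was estimated by eye on a ten-point control scale after plants spent twelve to sixteen days in a greenhouse following soil or foliar treatment. Foliar sprays targeted plants at one to four leaves; all doses were formulated in a non-phytotoxic solvent with surfactant.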

[2] = system: cocklebur; experiment: Test B pre/postemergence cocklebur; type: in vivo, Xanthium strumarium
How it was run: as §1

[3] = system: purple nutsedge; experiment: Test B pre/postemergence purple nutsedge; type: in vivo, Cyperus rotundus
How it was run: as §1

[4] = system: sugar beet; experiment: Test B pre/postemergence sugar beet; type: in vivo, Beta vulgaris
How it was run: as §1

[5] = system: corn; experiment: Test B pre/postemergence corn; type: in vivo, Zea mays
How it was run: as §1

[6] = system: velvetleaf; experiment: Test B pre/postemergence velvetleaf; type: in vivo, Abutilon theophrasti
How it was run: as §1

[7] = system: wild oat; experiment: Test B pre/postemergence wild oat; type: in vivo, Avena fatua
How it was run: as §1

[8] = system: bamyardgrass; experiment: Test B flood test barnyardgrass; type: in vivo, Echinochloa crus-galli
How it was run: (§2)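 Read-out is a visual response score from 0 (no effect) to 10 (complete control), assigned by comparison with untreated controls. Treatment was applied at the 2-leaf stage, and plants stayed in the greenhouse for twelve to sixteen days before scoring.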

[9] = system: bedstraw; experiment: Test B pre/postemergence bedstraw; type: in vivo, Galium aparine; conditions: Preemergence
How it was run: as §1

[10] = system: blackgrass; experiment: Test B pre/postemergence blackgrass; type: in vivo, Alopecurus myosuroides
How it was run: as §1

[11] = system: duck salad; experiment: Test B flood test duck salad; type: in vivo, Heteranthera limosa
How it was run: as §2

[12] = system: surinam grass; experiment: Test B pre/postemergence surinam grass; type: in vivo, Brachiaria decumbens
How it was run: as §1

[13] = system: rice; experiment: Test B flood test rice; type: in vivo, Oryza sativa
How it was run: as §2

[14] = system: crabgrass; experiment: Test B pre/postemergence crabgrass; type: in vivo, Digitaria sanguinalis
How it was run: as §1

[15] = system: giant foxtail; experiment: Test B pre/postemergence giant foxtail; type: in vivo, Setaria faberii
How it was run: as §1

[16] = system: morningglory; experiment: Test B pre/postemergence morningglory; type: in vivo, Ipomoea hederacea
How it was run: as §1

[17] = system: rape; experiment: Test B pre/postemergence rape; type: in vivo, Brassica napus
How it was run: as §1

[18] = system: pigweed; experiment: Test B pre/postemergence pigweed; type: in vivo, Amaranthus retroflexus
How it was run: as §1

[19] = system: soybean; experiment: Test B pre/postemergence soybean; type: in vivo, Glycine max
How it was run: as §1

[20] = system: smallflower flatsedge; experiment: Test B flood test smallflower flatsedge; type: in vivo, Cyperus difformis
How it was run: as §2

[21] = Postemergence, Rate 500 g/ha, scale of 0 to 10 where 0 is no effect and 10 is complete control
[22] = Preemergence, Rate 62 g/ha, scale 0 to 10 (0 no effect, 10 complete control)
[23] = Preemergence, Rate 125 g/ha, scale of 0 to 10 where 0 is no effect and 10 is complete control
[24] = Preemergence, Rate 250 g/ha, scale 0 to 10, 0 is no effect, 10 is complete control
[25] = Preemergence, Rate 500 g/ha, scale 0 to 10, 0 is no effect, 10 is complete control
[26] = Postemergence, Rate 125 g/ha, scale 0 to 10, 0 is no effect, 10 is complete control
[27] = Postemergence, Rate 250 g/ha, scale 0 to 10, 0 is no effect, 10 is complete control
[28] = Rate 62 g/ha, Postemergence, scale of 0 to 10 where 0 is no effect and 10 is complete control
[29] = Rate 62 g/ha, flood test species, Pre-emergence, visual evaluation after twelve to sixteen days
[30] = Rate 125 g/ha, under heading Pre-emergence, flood test species, visual evaluation after twelve to sixteen days
[31] = Rate 250 g/ha, Pre-emergence, flood-test species, scale 0 to 10, 0 is no effect, 10 is complete control
[32] = Rate 500 g/ha, Pre-emergence, flood test species, scale 0 to 10 (0 no effect, 10 complete control)
[33] = Preemergence, Rate 250 g/ha, scale of 0 to 10 where 0 is no effect and 10 is complete control

SMILES: Cc1nc(Cl)sc1C(C)n1c(=O)on(C(=O)N(c2ccc(Cl)cc2)C(C)C)c1=O (centres unmarked) [Compound 406]
- Wheat plant response rating [1, 21]: 0
- Plant response rating, Wheat [1, 22]: 0
- Plant response rating, Wheat [1, 23]: 0
- Wheat plant response rating [1, 24]: 0
- Wheat plant response rating [1, 25]: 0
- Plant response rating, Cocklebur [2, 26]: 0
- Plant response rating, Cocklebur [2, 27]: 0
- Cocklebur plant response rating [2, 21]: 0
- Plant response rating, Cocklebur [2, 22]: 0
- Plant response rating, Cocklebur [2, 23]: 0
- Cocklebur plant response rating [2, 24]: 0
- Cocklebur plant response rating [2, 25]: 0
- Cocklebur plant response rating [2, 28]: 0
- Plant response rating, Nutsedge [3, 27]: 0
- Nutsedge plant response rating [3, 21]: 0
- Plant response rating, Nutsedge [3, 22]: 0
- Plant response rating, Nutsedge [3, 23]: 0
- Nutsedge plant response rating [3, 24]: 0
- Nutsedge plant response rating [3, 25]: 0
- Plant response rating, Sugarbeets [4, 27]: 0
- Sugarbeets plant response rating [4, 21]: 0
- Plant response rating, Sugarbeets [4, 22]: 0
- Plant response rating, Sugarbeets [4, 23]: 0
- Sugarbeets plant response rating [4, 24]: 0
- Sugarbeets plant response rating [4, 25]: 0
- Plant response rating, Corn [5, 26]: 0
- Plant response rating, Corn [5, 27]: 0
- Corn plant response rating [5, 21]: 0
- Plant response rating, Corn [5, 22]: 0
- Plant response rating, Corn [5, 23]: 0
- Corn plant response rating [5, 24]: 0
- Corn plant response rating [5, 25]: 0
- Corn plant response rating [5, 28]: 0
- Plant response rating, Velvetleaf [6, 27]: 0
- Velvetleaf plant response rating [6, 21]: 0
- Plant response rating, Velvetleaf [6, 22]: 0
- Plant response rating, Velvetleaf [6, 23]: 0
- Velvetleaf plant response rating [6, 24]: 0
- Velvetleaf plant response rating [6, 25]: 0
- Wild oats plant response rating [7, 21]: 0
- Plant response rating, Wild oats [7, 22]: 0
- Plant response rating, Wild oats [7, 23]: 0
- Wild oats plant response rating [7, 24]: 0
- Wild oats plant response rating [7, 25]: 0
- Plant response rating, Barnyardgrass (0 to 10 scale, 0 is no effect, 10 is complete control) [8, 29]: 0
- Barnyardgrass plant response rating (0 to 10 scale, 0 is no effect, 10 is complete control) [8, 30]: 0
- Barnyardgrass plant response rating [8, 31]: 0
- Barnyardgrass plant response rating [8, 32]: 0
- Plant response rating, Bedstraw ([9]; Rate 62 g/ha, scale 0 to 10 (0 no effect, 10 complete control)): 0
- Plant response rating, Bedstraw ([9]; Rate 125 g/ha, scale of 0 to 10 where 0 is no effect and 10 is complete control): 0
- Bedstraw plant response rating ([9]; Rate 250 g/ha, scale of 0 to 10 where 0 is no effect and 10 is complete control): 0
- Plant response rating, Blackgrass [10, 26]: 0
- Plant response rating, Blackgrass [10, 27]: 0
- Blackgrass plant response rating [10, 21]: 0
- Plant response rating, Blackgrass [10, 22]: 0
- Plant response rating, Blackgrass [10, 23]: 0
- Blackgrass plant response rating [10, 33]: 0
- Blackgrass plant response rating [10, 25]: 0
- Blackgrass plant response rating [10, 28]: 0
- Plant response rating, Ducksalad (0 to 10 scale, 0 is no effect, 10 is complete control) [11, 29]: 0
- Ducksalad plant response rating (0 to 10 scale, 0 is no effect, 10 is complete control) [11, 30]: 0
- Ducksalad plant response rating [11, 31]: 0
- Ducksalad plant response rating [11, 32]: 0
- Plant response rating, B. signalgrass [12, 26]: 0
- Plant response rating, B. signalgrass [12, 27]: 0
- B. signalgrass plant response rating [12, 21]: 0
- Plant response rating, B. signalgrass [12, 22]: 0
- Plant response rating, B. signalgrass [12, 23]: 0
- B. signalgrass plant response rating [12, 33]: 0
- B. signalgrass plant response rating ([12]; Preemergence, Rate 500 g/ha, scale of 0 to 10 where 0 is no effect and 10 is complete control): 0
- B. signalgrass plant response rating [12, 28]: 0
- Plant response rating, Rice (0 to 10 scale, 0 is no effect, 10 is complete control) [13, 29]: 0
- Rice plant response rating (0 to 10 scale, 0 is no effect, 10 is complete control) [13, 30]: 0
- Rice plant response rating [13, 31]: 0
- Rice plant response rating [13, 32]: 0
- Plant response rating, Crabgrass [14, 26]: 0
- Plant response rating, Crabgrass [14, 27]: 0
- Crabgrass plant response rating [14, 21]: 0
- Plant response rating, Crabgrass [14, 22]: 0
- Plant response rating, Crabgrass [14, 23]: 0
- Crabgrass plant response rating [14, 24]: 2
- Crabgrass plant response rating [14, 25]: 6
- Crabgrass plant response rating [14, 28]: 0
- Plant response rating, Giant foxtail [15, 26]: 0
- Plant response rating, Giant foxtail [15, 27]: 0
- Giant foxtail plant response rating [15, 21]: 0
- Plant response rating, Giant foxtail [15, 22]: 0
- Plant response rating, Giant foxtail [15, 23]: 0
- Giant foxtail plant response rating [15, 24]: 2
- Giant foxtail plant response rating [15, 25]: 9
- Giant foxtail plant response rating [15, 28]: 0
- Plant response rating, Morningglory [16, 27]: 2
- Morningglory plant response rating [16, 21]: 2
- Plant response rating, Morningglory [16, 22]: 0
- Plant response rating, Morningglory [16, 23]: 0
- Morningglory plant response rating [16, 24]: 0
- Morningglory plant response rating [16, 25]: 0
- Plant response rating, Rape [17, 27]: 0
- Rape plant response rating [17, 21]: 0
- Plant response rating, Rape [17, 22]: 0
- Plant response rating, Rape [17, 23]: 0
- Rape plant response rating [17, 24]: 0
- Rape plant response rating [17, 25]: 0
- Plant response rating, Redroot pigweed [18, 27]: 0
- Redroot pigweed plant response rating [18, 21]: 0
- Plant response rating, Redroot pigweed [18, 22]: 0
- Plant response rating, Redroot pigweed [18, 23]: 0
- Redroot pigweed plant response rating [18, 24]: 0
- Redroot pigweed plant response rating [18, 25]: 0
- Plant response rating, Soybean [19, 27]: 2
- Soybean plant response rating [19, 21]: 2
- Plant response rating, Soybean [19, 22]: 0
- Plant response rating, Soybean [19, 23]: 0
- Soybean plant response rating [19, 24]: 0
- Soybean plant response rating [19, 25]: 0
- Plant response rating, S. Flatsedge (0 to 10 scale, 0 is no effect, 10 is complete control) [20, 29]: 0
- S. Flatsedge plant response rating (0 to 10 scale, 0 is no effect, 10 is complete control) [20, 30]: 0
- S. Flatsedge plant response rating [20, 31]: 0
- S. Flatsedge plant response rating [20, 32]: 0
